Assay results published in patent US20250313530A1, “SMALL MOLECULE INHIBITORS OF INTERLEUKIN-4 AND USES THEREOF” (Trustees of Boston University, priority 2024, published 2025).

Legend:
[1] = system: IL-4 induced STAT-6 phosphorylation in Ramos B lymphocytes (type I IL-4 receptor); test: Ramos STAT-6 phosphorylation assay (western blot); format: cell-based
Protocol: Ramos cells were purchased from ATCC and maintained in RMPI-1640 with 10% heat-inactivated Fetal Bovine Serum. Cells used for assays were between passages 4 and 8. […] Undiluted cell lysates were run SDS-PAGE and transferred to Immunoblot PVDF membrane using Biorad equipment. Membranes were incubated with 1:1000 primary antibody overnight at 4° C. Membranes were then incubated with 1:50,000 dilution secondary for 1 hour at room temperature. Membranes were then exposed to Femto ECL for 5 minutes and imaged using a Bio-Rad Gel Doc. The brightness/contrast was adjusted in FIJI and the area under the curve of each lane was quantified. The phosphorylated STAT-6 to STAT-6 ratio was calculated and normalized to the amount of total STAT-6. The data was plotted and analyzed using GraphPad Prism 9.2.0.

[2] = PAMPA membrane permeability; format: in vitro ADME; conditions: 18 hours incubation
Protocol: PVDF membranes purchased from Bioassay Systems PAMPA-096 were coated with 5 μL of 4% Phosphatidylcholine (Lecithin, MP Biomedicals 0210214780) in dodecane. […] Permeability was calculated by Pv=C×ln (1−ODA/ODE) cm/s, where ODA is the absorbance of acceptor solution minus blank, and ODE the absorbance of the equilibrium standard minus blank, and C=7.72×10^−6 using an 18-hour incubation time.

For N#Cc1c(-c2ccc(O)c(O)c2)cc(-c2ccccc2)[nH]c1=N [Compound 15, 4-(3,4-dihydroxyphenyl)-2-imino-6-phenyl-1,2-dihydropyridine-3-carbonitrile], the inhibition at 0.5 µM ([1]; Homo sapiens, Ramos, read-out: percent inhibition of STAT-6 phosphorylation) was 61.9%, the “inhibition of phosphorylation of STAT-6” value ([1]; Ramos B lymphocytes, 50 nM) was “minimum inhibition” and the Papp at 18 h, 100 μM [2] was 12.7 ×10⁻⁶ cm/s.
